A short description of experiment [1]: Host-dye fluorescence titration (quenching of dye emission on stepwise addition of host). Type of experiment: binding. The settings on record: for binding affinity (Ka): host-dye binding interaction in surine, fluorescence monitored at 423 nm. An excerpt: Addition of the receptor host molecule to the dye solution results in a quenching of the dye emission upon the formation of the self-assembled P5AS-MDAP host-dye fluorescent chemosensor. Thereby, in the sensing assay, in the presence of polyamines, the dye is displaced from the host cavity resulting in a fluorescence "turn-on" signal. The involved processes show very fast binding kinetics and fast signal responses.

Experiment [2] concerns P5AS-MDAP host-dye chemosensor. Kind of experiment: Fluorescence turn-on indicator displacement sensing assay with P5AS-MDAP chemosensor in artificial media. It is filed as binding. The settings on record: for relative fluorescence intensity changes monitored at 423 nm: addition of P5AS-MDAP. An excerpt:
Thereby, in the sensing assay, in the presence of polyamines, the dye is displaced from the host cavity resulting in a fluorescence "turn-on" signal.
(§1) Fig. 2 Schematic illustration of established cation exchange reactions in systems wherein the known chemosensors become dysfunctional in biologically relevant media such as PBS or urine. At high salt concentrations, the signalling binding pockets of the receptor host molecule are occupied by salts and are no longer available for the detection of relevant analytes. Moreover, chemosensors self-assembled from a receptor host and dye molecules decompose at high salt concentrations as the dye is pushed out of the receptor by the salts. Fig. 3 • (a) Chemical structure of the preferred host molecule P5AS. • (b) Chemical structure of the preferred dye molecule MDAP. • (c) Chemical structure of the preferred dye molecule BrDAP. […] Fig. 8 Relative fluorescence intensity changes monitored at 433 nm on addition of P5AS-BrDAP chemosensor (21.6 µM) to • (a) human urine samples collected from four healthy individuals (diluted two times) and later spiked with several polyamines and polyamine mixtures (each at 5 µM) in order to simulate urine from diseased patients and • (b) human saliva sample collected from a healthy individual (undiluted) and later spiked with several polyamines and polyamine mixtures (each at 5 µM) in order to simulate saliva from diseased patients (microplate reader assay). […] Fig. 9 Relative fluorescence intensity changes monitored at 423 nm upon addition of • (a) P5AS-MDAP host-dye chemosensor and • (b) P5AS-BrDAP host-dye chemosensor to a solution of spermine (spm, 3.3 µM) in neurobasal™ medium.

In experiment [3] the test system is P5AS-BrDAP host-dye chemosensor. The experiment in a line: Fluorescence turn-on indicator displacement sensing assay with P5AS-BrDAP chemosensor in artificial media. The following applies: addition of P5AS-BrDAP. It is filed as binding.
The subject of a further experiment is P5AS-BrDAP chemosensor. The settings on record: chemosensor 21.6 µM; human urine (diluted two times) and saliva (undiluted), spiked each at 5 µM.
Text: as §1, with “salts.” for “salts. Fig. 3 • (a) Chemical structure of the preferred host molecule P5AS. • (b) Chemical structure of the preferred dye molecule MDAP. • (c) Chemical structure of the preferred dye molecule BrDAP.”

[4] abbreviates: spermine 3.3 µM in neurobasal medium.

Structures are written as SMILES.

For `BrCCCC[n+]1cc2ccc3c[n+](CCCCBr)cc4ccc(c1)c2c34` [BrDAP, N,N'-bis(4-bromobutyl)-2,7-diazapyrenium dication], in experiment [1], the “stronger binding affinity for P5AS compared to MDAP” value is 10^2 times and the “binding affinity (Ka)” value stood at 4.5e+08 M⁻¹. In addition, the “binding affinity towards P5AS” value in experiment [1] (order of magnitude, Figure 7a experiments in surine) is on record as 10^8 M^-1.
In the case of `C[n+]1cc2ccc3c[n+](C)cc4ccc(c1)c2c34` [MDAP, N,N'-dimethyl-2,7-diazapyrenium dication], the “binding affinity (Ka)” value in experiment [1] was 4.9e+06 M⁻¹.
On to `NCCCCN` [Putrescine, putrescine], for which the “relative fluorescence intensity changes monitored at 423 nm” value in experiment [2] (polyamine 3.3 µM in surine) is on record as “does not give rise to any changes in the fluorescence intensity”.
Consider `NCCCCCN` [cadaverine], for which the “relative fluorescence intensity changes monitored at 423 nm” value in experiment [2] (polyamine 3.3 µM in surine) is given as “strong fluorescence enhancement”; in experiment [3] (polyamine 3.3 µM in surine), “no significant fluorescence signal change”.
As for `NCCCCNCCCN` [spermidine], the figures for the “relative fluorescence intensity changes monitored at 423 nm” value in experiment [2] (polyamine 3.3 µM in surine) and in experiment [3] (polyamine 3.3 µM in surine) were “strong fluorescence enhancement” and “no significant fluorescence signal change”, respectively.
Consider `NCCCNCCCCNCCCN` [spermine], for which the “relative fluorescence intensity changes monitored at 423 nm” value in experiment [2] (polyamine 3.3 µM in surine), in experiment [2] (setting [4]), in experiment [3] (polyamine 3.3 µM in surine) and in experiment [3] (setting [4]) was “strong fluorescence enhancement” throughout. For the same compound, in experiment [2] (spermine 5.1 µM added to P5AS-MDAP in surine, 423 nm), the “time to fluorescence signal turn-on (displacement of MDAP from the host)” value was “within a few milliseconds”. Also, in the experiment with P5AS-BrDAP chemosensor, the “relative fluorescence intensity changes monitored at 433 nm, spiked versus healthy samples” value is reported as “clear distinction between the fluorescence signal outputs”.
